Assay results from patent publication US8937183B2, “Detection of hydrogen peroxide” (Promega Corporation, priority 2011, dated 2015).

Columns and labels:
[1] = Signal strength differences due to reaction pH and buffer composition (hydrogen peroxide, D-cysteine conversion, LDR); type: biochemical; details: for Net Average Signals at 15 Minutes / Net Average Signals at 60 Minutes / Net Average Signals at 105 Minutes: 100 μl of 10 μM H2O2 added
Method: A 30 μl sample of 4 mg/ml PBI 4458 in DMSO was diluted to 1.5 ml with Nanopure water, and 50 μl added to wells A1-12 and E1-12 of a microtiter plate. A 30 μl sample of 4 mg/ml PBI 4472 in DMSO was diluted to 1.5 ml with Nanopure, and 50 μl added to wells B1-12 and F1-12 of the plate. A 30 μl sample of 4 mg/ml PBI 4480 in DMSO was diluted to 1.5 ml with Nanopure water, and 50 μl added to wells C1-12 and G1-12 of the plate. A 30 μl sample of 4 mg/ml PBI 4481 in DMSO was diluted to 1.5 ml with Nanopure water, and 50 μl added to wells D1-12 and H1-12 of the plate. To the plate, a 50 μl sample of 200 mM KHPO4, pH 7.4 was added to wells A1-D4; 50 μl 200 mM Tris buffer, pH 7.4 was added to wells A5-D8; 50 μl 250 mM HEPES buffer, pH 7.5 was added to wells A9-D12; 50 μl 200 mM KHPO4 buffer, pH 9.2 was added to wells E1-H4; 50 μl 250 mM Tris buffer, pH 10.4 was added to wells E5-H8; and 50 μl 100 mM CAPS buffer, pH 10.4 was added to wells E9-H12.
A sample of hydrogen peroxide (30%, Sigma, H1009-5 ml) was diluted to 10 μM with Nanopure water, and 100 μl added to columns 3, 4, 7, 8, 11, 12 wells A-H of the plate. 100 μl Nanopure water was added to columns 1, 2, 5, 6, 9 and 10 of the plate. The plate was incubated at room temperature for 15 minutes.
A conversion solution was made by mixing 5 ml of 1 M HEPES buffer, pH 7.5, 4.9 ml of Nanopure water and 100 μl of 100 mM D-cysteine (in Nanopure water), and […] added to all wells of a luminometer plate.
After incubation, 25 μl of sample from all wells in the plate was transferred and mixed into the corresponding wells in the luminometer plate, incubated 2-3 minutes at room temperature, and 50 μl LDR (Example 23) added. The luminometer plate was incubated for 15 minutes at room temperature, and bioluminescence detected on a GloMax® luminometer.
Additional samples were taken at 60 and 105 minutes and added to a fresh luminometer plates containing 25 μl of conversion solution in all wells. The plates were then incubated for 15 minutes at room temperature, and bioluminescence detected as previously described.

[2] = Signal differences in mammalian cell culture media (DMEM) versus physiological buffer (HBSS) with hydrogen peroxide; type: biochemical; details: 30 minutes
Method: A 100 μl sample of 4 mg/ml DMSO solution of PBI 4458 was diluted to 500 μl with HBSS buffer (Invitrogen 14025-092), and 50 μl added to wells A1-A9 of a fresh microtiter plate (“DISP”). 100 μl 4 mg/ml DMSO solution of PBI 4472 was diluted to 500 μl with HBSS, and 50 μl added to wells E1-E9. 90 μl HBSS was added to wells A1-B9 of two new microtiter plates labeled “RT” and “37C”. 90 μl DMEM was added to wells C1-D9 of both plates.
A sample of 30% hydrogen peroxide (Sigma H1009-5 ml) was diluted to 1 mM with Nanopure water, and 7.5 μl 1 mM hydrogen peroxide diluted to 1.5 ml with HBSS, and 90 μl added to wells A4-B6 of plates RT and 37° C. 15 μl 1 mM hydrogen peroxide was diluted to […] with HBSS, and 90 μl added to wells A7-B9 of both plates. 90 μl of HBSS was added to wells A1-B3, and 90 μl of DMEM added to wells C1-D3 of both plates. 7.5 μl 1 mM hydrogen peroxide was diluted to 1.5 ml with DMEM, and 90 μl added to wells C4-D6 of both plates. 15 μl 1 mM hydrogen peroxide was diluted to 1.5 ml with DMEM and 90 μl added to wells C7-D9 of both plates.
10 μl samples of row A of plate “DISP” was transferred to rows A and C of plates RT and 37° C., and 10 μl of row B of plate “DISP” transferred to rows B and D of plates RT and 37° C. The 37° C. plate was incubated at 37° C., 5% CO2, with plate RT incubated at room temperature. Both plates were incubated for 30 minutes.
A conversion solution was made by mixing 7.5 ml of 1 M HEPES, pH 8.0, 7.4 ml Nanopure water and 100 μl 100 mM D cysteine. After mixing, 75 μl was added to all wells of a new luminometer plate.
After incubation, 25 μl from wells A1-D9 of the 37° C. plate was transferred to wells E1-H9 of the new luminometer plate, 25 μl of wells A1-D9 of the RT plate was transferred to wells A1-D9 of new luminometer plate, and the plate incubated at room temperature for 2-3 minutes. A 100 μl sample of LDR (Example 23) was added to wells A1-H9, incubated for 15 minutes at room temperature, and bioluminescence detected on a GloMax® luminometer. After reading, the duplicate wells were averaged, and the averaged values with peroxide addition were compared to those without peroxide (Table 11).

In the case of `CC1(C)OB(/C=C/COc2ccc3nc(C#N)sc3c2)OC1(C)C` [PBI 4458, (E)-6-((3-(4,4,5,5-tetramethyl-1,3,2-dioxaborolan-2-yl)allyl)oxy)-benzo[d]thiazole-2-carbonitrile], the “Signal to Background Ratios at 15 Minutes” value ([1]; CAPS pH 10.4, 15 minutes) is reported as 13.2, the “Net Average Signals at 15 Minutes” value ([1]; CAPS pH 10.4, 15 minutes) is reported as 4,577,774 RLU and the “Signal to Background Ratios at 60 Minutes” value ([1]; CAPS pH 10.4, 60 minutes) is reported as 12.1. The “Net Average Signals at 60 Minutes” value ([1]; CAPS pH 10.4, 60 minutes) was 5,831,485 RLU, the “Signal to Background Ratios at 105 Minutes” value ([1]; CAPS pH 10.4, 105 minutes) was 9.6 and the “Net Average Signals at 105 Minutes” value ([1]; CAPS pH 10.4, 105 minutes) was 8,063,108 RLU. The “Signal to Background Ratios at 15 Minutes” value ([1]; HEPES pH 7.5, 15 minutes) was 2.0, the “Net Average Signals at 15 Minutes” value ([1]; HEPES pH 7.5, 15 minutes) was 117,752 RLU and the “Signal to Background Ratios at 60 Minutes” value ([1]; HEPES pH 7.5, 60 minutes) was 4.5. For the same molecule, the “Net Average Signals at 60 Minutes” value ([1]; HEPES pH 7.5, 60 minutes) was 494,958 RLU, the “Signal to Background Ratios at 105 Minutes” value ([1]; HEPES pH 7.5, 105 minutes) was 5.7 and the “Net Average Signals at 105 Minutes” value ([1]; HEPES pH 7.5, 105 minutes) was 1,033,511 RLU. The “Net Average Signals at 15 Minutes” value ([1]; KPO4 Ph 7.4, 15 minutes) was 148,190 RLU, the “Signal to Background Ratios at 15 Minutes” value ([1]; KPO4 pH 7.4, 15 minutes) was 2.2 and the “Signal to Background Ratios at 60 Minutes” value ([1]; KPO4 pH 7.4, 60 minutes) was 4.5. For the same molecule, the “Net Average Signals at 60 Minutes” value ([1]; KPO4 pH 7.4, 60 minutes) was 615,057 RLU, the “Signal to Background Ratios at 105 Minutes” value ([1]; KPO4 pH 7.4, 105 minutes) was 5.4 and the “Net Average Signals at 105 Minutes” value ([1]; KPO4 pH 7.4, 105 minutes) was 1,297,857 RLU. The “Signal to Background Ratios at 15 Minutes” value ([1]; KPO4 pH 9.2, 15 minutes) was 6.4, the “Net Average Signals at 15 Minutes” value ([1]; KPO4 pH 9.2, 15 minutes) was 937,111 RLU and the “Signal to Background Ratios at 60 Minutes” value ([1]; KPO4 pH 9.2, 60 minutes) was 9.5. For the same molecule, the “Net Average Signals at 60 Minutes” value ([1]; KPO4 pH 9.2, 60 minutes) was 2,490,775 RLU, the “Signal to Background Ratios at 105 Minutes” value ([1]; KPO4 pH 9.2, 105 minutes) was 9.1 and the “Net Average Signals at 105 Minutes” value ([1]; KPO4 pH 9.2, 105 minutes) was 4,925,484 RLU. For the same molecule, the “Signal to Background Ratios at 15 Minutes” value ([1]; TRIS pH 10.4, 15 minutes) was 15.2, the “Net Average Signals at 15 Minutes” value ([1]; TRIS pH 10.4, 15 minutes) was 2,348,900 RLU and the “Signal to Background Ratios at 60 Minutes” value ([1]; TRIS pH 10.4, 60 minutes) was 19.4. For the same molecule, the “Net Average Signals at 60 Minutes” value ([1]; TRIS pH 10.4, 60 minutes) was 3,795,644 RLU, the “Signal to Background Ratios at 105 Minutes” value ([1]; TRIS pH 10.4, 105 minutes) was 15.7 and the “Net Average Signals at 105 Minutes” value ([1]; TRIS pH 10.4, 105 minutes) was 5,482,012 RLU. For the same molecule, the “Signal to Background Ratios at 15 Minutes” value ([1]; Tris pH 7.4, 15 minutes) was 2.2, the “Net Average Signals at 15 Minutes” value ([1]; Tris pH 7.4, 15 minutes) was 150,205 RLU and the “Signal to Background Ratios at 60 Minutes” value ([1]; Tris pH 7.4, 60 minutes) was 4.6. For the same molecule, the “Net Average Signals at 60 Minutes” value ([1]; Tris pH 7.4, 60 minutes) was 626,927 RLU, the “Signal to Background Ratios at 105 Minutes” value ([1]; Tris pH 7.4, 105 minutes) was 6.0 and the “Net Average Signals at 105 Minutes” value ([1]; Tris pH 7.4, 105 minutes) was 1,274,061 RLU. For the same molecule, the “Averaged Relative Light Unit Values” ([2]; DMEM, 37 C. plate, 0 uM Per) was 986,772 Relative Light Unit, the “Averaged Relative Light Unit Values” ([2]; DMEM, 37 C. plate, 5 uM Per) was 5,686,033 Relative Light Unit and the “Averaged Relative Light Unit Values” ([2]; DMEM, 37 C. plate, 10 uM Per) was 12,130,782 Relative Light Unit. For the same molecule, the “Averaged Relative Light Unit Values” ([2]; DMEM, RT plate, 0 uM Per) was 2,075,191 Relative Light Unit, the “Averaged Relative Light Unit Values” ([2]; DMEM, RT plate, 5 uM Per) was 8,556,256 Relative Light Unit and the “Averaged Relative Light Unit Values” ([2]; DMEM, RT plate, 10 uM Per) was 16,016,143 Relative Light Unit. For the same molecule, the “Averaged Relative Light Unit Values” ([2]; HBSS, 37 C. plate, 0 uM Per) was 434,728 Relative Light Unit, the “Averaged Relative Light Unit Values” ([2]; HBSS, 37 C. plate, 5 uM Per) was 2,791,805 Relative Light Unit and the “Averaged Relative Light Unit Values” ([2]; HBSS, 37 C. plate, 10 uM Per) was 4,912,905 Relative Light Unit. For the same molecule, the “Averaged Relative Light Unit Values” ([2]; HBSS, RT plate, 0 uM Per) was 853,268 Relative Light Unit, the “Averaged Relative Light Unit Values” ([2]; HBSS, RT plate, 5 uM Per) was 6,111,214 Relative Light Unit and the “Averaged Relative Light Unit Values” ([2]; HBSS, RT plate, 10 uM Per) was 10,641,411 Relative Light Unit.
